# Laboratory results as given in ChEMBL document CHEMBL5241114, “A comprehensive review of BET-targeting PROTACs for cancer therapy” (Bioorg Med Chem, 2022).
# What was measured:
# [1] = tested on: RS4-11; assay: Antiproliferative activity against human RS4-11 cells assessed as reduction in cell viability incubated for 72 hrs under light irradiation; type: functional, cell-based; conditions: RS4-11, light or radiation study
# [2] = tested on: RS4-11; assay: Antiproliferative activity against human RS4-11 cells assessed as reduction in cell viability incubated for 72 hrs under dark condition; type: functional, cell-based; conditions: RS4-11, 72 h
# [3] = tested on: MDA-MB-468; assay: Antiproliferative activity against human MDA-MB-468 cells; type: functional, cell-based
# [4] = tested on: MDA-MB-468; assay: Antitumor activity against human MDA-MB-468 cells xenografted in mouse assessed as tumor growth inhibition at 5 mg/kg, iv; type: functional; conditions: read-out: TGI
# [5] = molecular target: T1, Bromodomain-containing protein 4 (Homo sapiens, UniProt O60885); assay: Binding affinity to BRD4 bromodomain 1 in human Ramos cells; type: cell-based
# [6] = molecular target: T1, Bromodomain-containing protein 4; assay: Induction of BRD4 (unknown origin) degradation at 1 uM relative to control
# [7] = Antiproliferative activity against human Burkitts lymphoma cells; type: functional; conditions: Burkitts lymphoma cell
# [8] = tested on: NAMALVA; assay: Antiproliferative activity against human NAMALVA cells; type: functional
# [9] = molecular target: T1, Bromodomain-containing protein 4; assay: Induction of degradation of BRD4 (unknown origin)
# [10] = molecular target: T1, Bromodomain-containing protein 4; assay: Induction of BRD4 degradation in human HD-MB03 cells measured after 12 hrs; type: cell-based
# [11] = molecular target: T1, Bromodomain-containing protein 4; assay: Induction of BRD4 degradation in human HD-MB03 cells at 100 nM measured at 12 hrs relative to control; type: cell-based
# [12] = tested on: MV4-11; assay: Cytotoxicity against human MV4-11 cells; type: functional, cell-based
# [13] = tested on: MV4-11; assay: Cytotoxicity against human MV4-11 cells measured after 96 hrs; type: functional, cell-based; conditions: MV4-11, 96 h
# [14] = molecular target: T1, Bromodomain-containing protein 4; assay: Induction of BRD4 degradation in human HEK293T cells; type: cell-based
# [15] = molecular target: T1, Bromodomain-containing protein 4; assay: Induction of BRD4 degradation in human HEK293T cells at 10 uM measured at 6 hrs relative to control; type: cell-based
# [16] = molecular target: T1, Bromodomain-containing protein 4; assay: Binding affinity to BRD4 BD2 (unknown origin) assessed as dissociation constant by isothermal titration calorimetry assay
# [17] = molecular target: T2, Bromodomain-containing protein 2 (Homo sapiens, UniProt P25440); assay: Binding affinity to BRD2 BD1 (unknown origin) assessed as dissociation constant by isothermal titration calorimetry assay
# [18] = molecular target: von Hippel-Lindau disease tumor suppressor (Homo sapiens, UniProt P40337); assay: Binding affinity to VHL (unknown origin) assessed as dissociation constant by isothermal titration calorimetry assay
# [19] = molecular target: Bromodomain-containing protein 3 (Homo sapiens, UniProt Q15059); assay: Induction of BRD3 degradation in human HeLa cells measured after 4 hrs; type: cell-based
# [20] = molecular target: T1, Bromodomain-containing protein 4; assay: Induction of BRD4 degradation in human HeLa cells measured after 4 hrs; type: cell-based
# [21] = molecular target: T1, Bromodomain-containing protein 4; assay: Induction of BRD4 degradation in human 22Rv1 cells assessed as downregulation of c-Myc expression at 250 nM measured after 2 hrs relative to control; type: cell-based
# [22] = tested on: CWR22R; assay: Antiproliferative activity against human 22Rv1 cells assessed as reduction in cell viability incubated for 48 to 72 hrs by Celltiter-Glo cell viability assay; type: functional, cell-based
# [23] = tested on: MV4-11; assay: Antiproliferative activity against human MV4-11 cells assessed as reduction in cell viability incubated for 48 to 72 hrs by Celltiter-Glo cell viability assay; type: functional, cell-based
# [24] = molecular target: T2, Bromodomain-containing protein 2; assay: Induction of BRD2 degradation in human 22Rv cells incubated for 16 hrs by Western blot analysis; type: cell-based; conditions: 22rv1
# [25] = molecular target: T2, Bromodomain-containing protein 2; assay: Induction of BRD2 degradation in human VCaP cells incubated for 16 hrs by Western blot analysis; type: cell-based
# [26] = molecular target: T2, Bromodomain-containing protein 2; assay: Induction of BRD2 degradation in human LNCaP-95 cells incubated for 16 hrs by Western blot analysis; type: cell-based
# [27] = molecular target: von Hippel-Lindau disease tumor suppressor/Bromodomain-containing protein 2 (Homo sapiens, UniProt P25440+P40337); assay: Protac activity at BRD2/VHL-bound E3 ligase in human 22Rv1 cells assessed as reduction c-Myc level incubated for 24 hrs by Western blot analysis; type: cell-based
# [28] = tested on: EOL1; assay: Antiproliferative activity against human EOL1 cells assessed as inhibition of cell growth; type: functional, cell-based
# [29] = tested on: HL-60; assay: Antiproliferative activity against human HL-60 cells assessed as inhibition of cell growth; type: functional, cell-based
# [30] = molecular target: T3, Caspase-3/Caspase-7 (Homo sapiens, UniProt P42574+P55210); assay: Activation of caspase 3/7 in human 22Rv1 cells by Caspase-Glo reagent based analysis; type: cell-based
# T3 sequence (P42574 whole entry): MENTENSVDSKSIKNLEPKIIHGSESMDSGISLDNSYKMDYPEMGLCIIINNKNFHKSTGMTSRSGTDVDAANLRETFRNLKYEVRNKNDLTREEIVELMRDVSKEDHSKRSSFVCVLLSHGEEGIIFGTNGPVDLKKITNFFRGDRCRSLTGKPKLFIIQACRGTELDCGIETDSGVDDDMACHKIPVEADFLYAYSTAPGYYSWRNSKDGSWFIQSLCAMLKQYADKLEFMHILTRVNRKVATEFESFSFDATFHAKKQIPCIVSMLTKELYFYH
# T3 sequence (P55210 whole entry): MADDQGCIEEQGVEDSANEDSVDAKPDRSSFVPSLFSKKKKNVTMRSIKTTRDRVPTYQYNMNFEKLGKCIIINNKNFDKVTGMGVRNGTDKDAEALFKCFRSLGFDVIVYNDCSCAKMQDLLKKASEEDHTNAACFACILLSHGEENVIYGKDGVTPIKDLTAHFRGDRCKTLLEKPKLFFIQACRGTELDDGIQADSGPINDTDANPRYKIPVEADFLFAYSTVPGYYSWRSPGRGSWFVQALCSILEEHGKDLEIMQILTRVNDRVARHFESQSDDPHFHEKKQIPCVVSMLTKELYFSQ
# [31] = tested on: SUD4; assay: Antiproliferative activity against human SU-DHL-4 cells assessed as reduction in cell viability measured after 48 hrs by MTT assay; type: functional
# [32] = tested on: MV4-11; assay: Antiproliferative activity against human MV4-11 cells assessed as cell growth inhibition measured after […] by Cell Titre Glo Luminescent assay; type: functional, cell-based
# [33] = molecular target: T1, Bromodomain-containing protein 4; assay: Induction of BRD4 degradation in human 231MFP cells; type: cell-based
# [34] = molecular target: T1, Bromodomain-containing protein 4; assay: Induction of BRD4 degradation in human HeLa cells incubated for 24 hrs by Western blot analysis; type: cell-based
# T2 sequence (P25440 whole entry): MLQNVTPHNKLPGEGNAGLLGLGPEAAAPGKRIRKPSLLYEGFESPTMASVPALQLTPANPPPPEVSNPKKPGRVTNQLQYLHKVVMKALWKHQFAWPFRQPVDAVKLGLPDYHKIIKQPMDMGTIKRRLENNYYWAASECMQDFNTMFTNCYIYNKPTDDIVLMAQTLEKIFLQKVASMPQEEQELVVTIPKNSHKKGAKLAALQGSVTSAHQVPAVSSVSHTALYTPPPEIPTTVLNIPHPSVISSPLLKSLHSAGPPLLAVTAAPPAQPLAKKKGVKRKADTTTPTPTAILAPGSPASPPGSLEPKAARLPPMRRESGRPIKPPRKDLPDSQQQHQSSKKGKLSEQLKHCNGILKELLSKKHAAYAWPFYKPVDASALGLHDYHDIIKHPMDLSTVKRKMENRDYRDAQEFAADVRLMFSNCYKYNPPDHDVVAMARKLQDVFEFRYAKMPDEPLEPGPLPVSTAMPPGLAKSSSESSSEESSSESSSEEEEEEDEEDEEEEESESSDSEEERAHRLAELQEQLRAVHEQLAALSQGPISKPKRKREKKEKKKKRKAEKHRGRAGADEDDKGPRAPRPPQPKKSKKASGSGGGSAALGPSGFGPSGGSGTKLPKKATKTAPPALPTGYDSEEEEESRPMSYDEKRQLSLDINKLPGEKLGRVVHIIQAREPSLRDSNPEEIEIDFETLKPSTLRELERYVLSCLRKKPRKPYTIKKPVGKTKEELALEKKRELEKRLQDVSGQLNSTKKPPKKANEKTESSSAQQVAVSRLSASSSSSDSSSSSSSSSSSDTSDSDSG
# Chain of von Hippel-Lindau disease tumor suppressor/Bromodomain-containing protein 2 (P25440 whole entry): as above
# Chain of von Hippel-Lindau disease tumor suppressor/Bromodomain-containing protein 2 (P40337 whole entry): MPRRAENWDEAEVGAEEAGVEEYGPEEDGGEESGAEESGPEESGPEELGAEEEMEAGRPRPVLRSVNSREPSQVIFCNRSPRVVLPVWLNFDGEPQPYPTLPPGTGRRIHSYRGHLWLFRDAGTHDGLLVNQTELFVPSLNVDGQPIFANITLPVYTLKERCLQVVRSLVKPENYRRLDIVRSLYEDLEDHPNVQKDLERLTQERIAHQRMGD
# Chain of von Hippel-Lindau disease tumor suppressor (P40337 whole entry): as above
# Chain of Bromodomain-containing protein 3 (Q15059 whole entry): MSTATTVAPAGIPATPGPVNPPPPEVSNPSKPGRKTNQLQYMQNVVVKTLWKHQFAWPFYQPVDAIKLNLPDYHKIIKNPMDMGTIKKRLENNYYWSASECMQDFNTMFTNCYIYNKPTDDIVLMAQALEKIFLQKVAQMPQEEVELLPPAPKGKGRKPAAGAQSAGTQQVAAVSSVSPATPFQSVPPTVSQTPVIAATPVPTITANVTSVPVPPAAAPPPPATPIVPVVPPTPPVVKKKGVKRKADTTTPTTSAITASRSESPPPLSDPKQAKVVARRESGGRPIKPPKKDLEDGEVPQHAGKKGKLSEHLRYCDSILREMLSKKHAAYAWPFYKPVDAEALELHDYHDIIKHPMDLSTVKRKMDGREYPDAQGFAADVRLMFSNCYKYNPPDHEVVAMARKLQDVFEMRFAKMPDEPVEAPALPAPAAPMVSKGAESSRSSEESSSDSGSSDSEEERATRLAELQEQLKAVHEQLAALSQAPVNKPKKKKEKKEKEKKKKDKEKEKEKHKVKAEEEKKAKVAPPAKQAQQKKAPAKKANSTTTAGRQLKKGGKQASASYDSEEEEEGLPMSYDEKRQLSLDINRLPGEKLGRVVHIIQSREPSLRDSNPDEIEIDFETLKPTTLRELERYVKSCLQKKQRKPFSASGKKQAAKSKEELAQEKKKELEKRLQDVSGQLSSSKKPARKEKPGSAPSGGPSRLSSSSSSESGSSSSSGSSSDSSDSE
structure (smiles),measurement,setting,value
COc1cc(/N=N/c2cccc3c2CN(C2CCC(=O)NC2=O)C3=O)cc(OC)c1OCC(=O)NCCCCNC(=O)C[C@@H]1N=C(c2ccc(Cl)cc2)c2c(sc(C)c2C)-n2c(C)nnc21 (stereo not given in full),EC50,[1],0.0885 µM
same,EC50,[2],0.61 µM
CCn1nc(C2CC2)cc1Nc1nc(C(=O)NCCCOCCOCCOCCCNc2cccc3c2C(=O)N(C2CCC(=O)NC2=O)C3=O)nc2[nH]c3cc(-c4c(C)noc4C)c(OC)cc3c12 (stereo not given),IC50,[3],< 0.01 µM
same,inhibition in vivo at 5 mg/kg,[4],85%
same,IC50,[5],0.022 µM
same,Emax,[6],93%
same,GI50,[7],0.4 µM
same,GI50,[8],0.34 µM
same,DC50,[9],0.005 µM
same,DC50,[10],0.23 µM
same,Emax,[11],63%
same,IC50,[12],1.24 µM
same,IC50,[13],0.006 µM
Cc1sc2c(c1C)C(c1ccc(Cl)cc1)=N[C@@H](CC(=O)NCCOCCNC(=O)CN1CCOc3cc(N(CCC#N)C(=O)CCl)ccc31)c1nnc(C)n1-2,DC50,[14],0.82 µM
same,Emax,[15],81%
Cc1ncsc1-c1ccc2c(c1)OCCOCCOC[C@@H](NC(=O)C[C@H]1N=C(c3ccc(Cl)cc3)c3c(sc(C)c3C)-n3c(C)nnc31)COCCOCCOCC(=O)N[C@@H](C(C)(C)C)C(=O)N1C[C@H](O)C[C@H]1C(=O)NC2,Kd,[16],0.18 µM
same,Kd,[17],0.18 µM
same,Kd,[18],0.047 µM
same,DC50,[19],0.025 µM
same,DC50,[20],0.125 µM
same,Activity,[21],> 90%
same,EC50,[22],0.64 µM
same,EC50,[23],0.3 µM
Cc1sc2c(c1C)C(c1ccc(Cl)cc1)=N[C@@H](CC(=O)NCCOCCOCCN1CCOc3cc(N(CCC#N)C(=O)CCl)ccc31)c1nnc(C)n1-2,DC50,[14],1.1 µM
same,Emax,[15],85%
Cc1sc2c(c1C)C(c1ccc(Cl)cc1)=N[C@@H](CC(=O)NCCCNC(=O)CN1CCOc3cc(N(CCC#N)C(=O)CCl)ccc31)c1nnc(C)n1-2,DC50,[14],0.81 µM
same,Emax,[15],71%
COc1cc(CN(CCCCNC(=O)COc2cccc3c2C(=O)N(C2CCC(=O)NC2=O)C3=O)C(=O)C[C@@H]2N=C(c3ccc(Cl)cc3)c3c(sc(C)c3C)-n3c(C)nnc32)c([N+](=O)[O-])cc1OC (stereo not given in full),IC50,[5],7.6 µM
same,GI50,[7],0.4 µM
same,GI50,[8],0.34 µM
Cc1ncsc1-c1ccc([C@H](C)NC(=O)[C@@H]2C[C@@H](O)CN2C(=O)[C@@H](NC(=O)COCCCOCCNC(=O)C[C@@H]2N=C(c3ccc(Cl)cc3)c3c(sc(C)c3C)-n3c(C)nnc32)C(C)(C)C)cc1,DC50,[24],< 0.005 µM
same,DC50,[25],< 0.005 µM
same,DC50,[26],< 0.005 µM
same,IC50,[27],< 0.001 µM
same,IC50,[28],0.0015 µM
same,IC50,[29],0.0015 µM
same,EC50,[30],0.09 µM
Cc1sc2c(c1C)C(c1ccc(Cl)cc1)=N[C@@H](CC(=O)OC(C)(C)C)c1nnc(C)n1-2,GC50,[31],3.12 µM
Cc1ncsc1-c1ccc(CNC(=O)[C@@H]2C[C@@H](O)CN2C(=O)[C@@H](NC(=O)COCCOCCOCCNC(=O)C[C@@H]2N=C(c3ccc(Cl)cc3)c3c(sc(C)c3C)-n3c(C)nnc32)C(C)(C)C)cc1,EC50,[32],0.0501 µM
same,IC50,[28],0.0015 µM
same,IC50,[29],0.0015 µM
same,EC50,[30],0.15 µM
COC(=O)C[C@H]1[C@]2(C)C3=C(C)[C@H](c4ccoc4-c4ccc(C(=O)NCCCNC(=O)C[C@@H]5N=C(c6ccc(Cl)cc6)c6c(sc(C)c6C)-n6c(C)nnc65)cc4)C[C@H]3O[C@@H]2[C@@H]2OC(=O)[C@]3(C)C=CC(=O)[C@@]1(C)[C@@H]23,IC50,[33],0.24 µM
Cc1c(C(=O)NCCCCCNc2cccc3c2C(=O)N(C2CCC(=O)NC2=O)C3=O)sc2c1C(c1ccc(Cl)cc1)=N[C@@H](CC(=O)OC(C)(C)C)c1nnc(C)n1-2 (stereo not given in full),DC50,[14],0.005 µM
Cc1ncsc1-c1ccc(CNC(=O)[C@@H]2[C@@H](F)[C@@H](O)CN2C(=O)[C@@H](NC(=O)COCCOCCOCCNC(=O)C[C@@H]2N=C(c3ccc(Cl)cc3)c3c(sc(C)c3C)-n3c(C)nnc32)C(C)(C)C)cc1,DC50,[34],0.001 µM
